Measured values from US20080070883A1, “Use of LXR modulators for the prevention and treatment of skin aging” (Wyeth, priority 2006, published 2008).

Experiments:
[1] = test system: serine palmitoyl transferase (SPTLC1); assay: TaqMan quantitative PCR, SPTLC1 gene expression in NHEKs; type: cell-based, human; details: 1 μM, FIG. 10A
Procedure: (§1) Add QIAzol® Lysis Reagent (QIAGEN Cat Number 79306) to the cells. Scrape the cells and place into a Falcon Polypropylene tube. Let stand at room temperature for 5 minutes. Add 1 ml of cells to microfuge tubes. Add 200 μl of chloroform, vortex, let stand for 5 minutes. Centrifuge at 4° C. for 15 minutes at 14,000 RPM. Add an equal volume of 70% ETOH (diluted with DEPC water). Add 600 μl to the RNeasy® column from the RNeasy® Mini Kit (QIAGEN Cat. Number 74106) centrifuge at 14,000 RPM at room temperature for 1 minute, discard flow-through. Add remainder of sample to the column, centrifuge, discard flow-through. Add 350 μl of RW1 buffer from the RNeasy® Mini Kit to the column, centrifuge at room temperature for 1 minute, discard flow-through. […] TaqMan technology was used for quantitative PCR for the evaluation of MMP, TNFα, TIMP, IL-8, ASAH1, SPTLC1, SMPD1, LASS2, TXNRD1, GPX3, GSR, CAT, ABCA1, ABCA2, ABCA12, ABCA13, ABCG1, decorin, and LXRα/β gene expression in keratinocytes and fibroblasts. […] Setup TaqMan with QuantiTect Multiplex PCR Kit (QIAGEN cat. Number 204543): 2× master mix: 25 μl; Single Tube Assay: 2.5 μl; Applied Biosystems Primers Probe set (part number 4308329)-18S forward primer: 0.25 μl, 18S reverse primer: 0.25 μl, 18S probe: 0.25 μl; water to 50 μl; 5 μl cDNA. […]

[2] = test system: glutathione peroxidase (GPX3); assay: TaqMan quantitative PCR, GPX3 gene expression in NHEKs; type: cell-based, human; details: 1 μM, FIG. 11
Procedure: as §1

ABCA12 = assay: TaqMan quantitative PCR, ABCA12 gene expression in NHEKs; type: cell-based, human; details: 1 μM
Procedure: as §1

[3] = test system: sphingomyelin phosphodiesterase (SMPD1); assay: TaqMan quantitative PCR, SMPD1 gene expression in NHEKs; type: cell-based, human; details: 1 μM, FIG. 10A
Procedure: as §1

ABCA2 = assay: TaqMan quantitative PCR, ABCA2 gene expression in NHEKs; type: cell-based, human; details: 1 μM, FIG. 6A
Procedure: as §1

TIMP1 [4] = assay: TaqMan quantitative PCR, TIMP1 gene expression in BJ human fibroblasts; type: cell-based; details: 1 μM, FIG. 9
Procedure: (§2) Add QIAzol® Lysis Reagent (QIAGEN Cat Number 79306) to the cells. Scrape the cells and place into a Falcon Polypropylene tube. Let stand at room temperature for 5 minutes. Add 1 ml of cells to microfuge tubes. Add 200 μl of chloroform, vortex, let stand for 5 minutes. Centrifuge at 4° C. for 15 minutes at 14,000 RPM. Add an equal volume of 70% ETOH (diluted with DEPC water). Add 600 μl to the RNeasy® column from the RNeasy® Mini Kit (QIAGEN Cat. Number 74106) centrifuge at 14,000 RPM at room temperature for 1 minute, discard flow-through. Add remainder of sample to the column, centrifuge, discard flow-through. Add 350 μl of RW1 buffer from the RNeasy® Mini Kit to the column, centrifuge at room temperature for 1 minute, discard flow-through. […]
(§3) TaqMan technology was used for quantitative PCR for the evaluation of MMP, TNFα, TIMP, IL-8, ASAH1, SPTLC1, SMPD1, LASS2, TXNRD1, GPX3, GSR, CAT, ABCA1, ABCA2, ABCA12, ABCA13, ABCG1, decorin, and LXRα/β gene expression in keratinocytes and fibroblasts. […]
(§4) Setup TaqMan with QuantiTect Multiplex PCR Kit (QIAGEN cat. Number 204543): 2× master mix: 25 μl; Single Tube Assay: 2.5 μl; Applied Biosystems Primers Probe set (part number 4308329)—18S forward primer: 0.25 μl, 18S reverse primer: 0.25 μl, 18S probe: 0.25 μl; water to 50 μl; 5 μl cDNA. […]

MMP3 [5] = assay: TaqMan quantitative PCR, MMP3 gene expression in NHEKs; type: cell-based, human; details: UV-exposed (8 J/m^2), 1 μM, FIG. 3
Procedure: as §1

IL-8 = assay: TaqMan quantitative PCR, IL-8 gene expression in NHEKs; type: cell-based, human; details: UV-exposed (8 J/m^2), 1 μM, FIG. 5
Procedure: as §1

ABCA13 = assay: TaqMan quantitative PCR, ABCA13 gene expression in NHEKs; type: cell-based, human; details: 1 μM, FIG. 6A
Procedure: as §1

acid ceramidase (ASAH1) = assay: TaqMan quantitative PCR, ASAH1 gene expression in NHEKs; type: cell-based, human; details: 1 μM, FIG. 10A
Procedure: as §1

TNFα = assay: TaqMan quantitative PCR, TNFα gene expression in NHEKs; type: cell-based, human; details: 1 μM, FIG. 2
Procedure: as §1

decorin = assay: TaqMan quantitative PCR, decorin gene expression in NHEKs; type: cell-based, human; details: UV-exposed (8 J/m^2), 1 μM, FIG. 7
Procedure: as §1

MMP3 [6] = assay: TaqMan quantitative PCR, MMP3 gene expression in BJ human fibroblasts; type: cell-based; details: 5 ng/ml rhTNFα, 1 μM, FIG. 8B
Procedure: as §2, §3, §4

[7] = test system: glutathione reductase (GSR); assay: TaqMan quantitative PCR, GSR gene expression in NHEKs; type: cell-based, human; details: 1 μM, FIG. 11
Procedure: as §1

TIMP1 [8] = assay: TaqMan quantitative PCR, TIMP1 gene expression in NHEKs; type: cell-based, human; details: 1 μM, FIG. 4
Procedure: as §1

catalase (CAT) = assay: TaqMan quantitative PCR, CAT gene expression in NHEKs; type: cell-based, human; details: 1 μM, FIG. 11
Procedure: as §1

[9] = test system: ceramide synthase (LASS2); assay: TaqMan quantitative PCR, LASS2 gene expression in NHEKs; type: cell-based, human; details: 1 μM, FIG. 10A
Procedure: as §1

LXRα = assay: TaqMan quantitative PCR, LXRα gene expression in NHEKs; type: cell-based, human; details: 1 μM, FIG. 1A
ABCG1 = assay: TaqMan quantitative PCR, ABCG1 gene expression in NHEKs; type: cell-based, human; details: 1 μM, FIG. 6A
Procedure: as §1

[10] = test system: thioredoxin reductase (TXNRD1); assay: TaqMan quantitative PCR, TXNRD1 gene expression in NHEKs; type: cell-based, human; details: 1 μM, FIG. 11
Procedure: as §1

ABCA1 = assay: TaqMan quantitative PCR, ABCA1 gene expression in NHEKs; type: cell-based, human; details: 1 μM, FIG. 6A
Procedure: as §1

MMP1 = assay: TaqMan quantitative PCR, MMP1 gene expression in BJ human fibroblasts; type: cell-based; details: 5 ng/ml rhTNFα, 1 μM, FIG. 8A
Procedure: as §2, §3, §4

LXRβ = assay: TaqMan quantitative PCR, LXRβ gene expression in NHEKs; type: cell-based, human; details: UV-exposed (8 J/m^2), 1 μM, FIG. 1B

SMILES: O=S(=O)(c1ccccc1)N(CC(F)(F)F)c1ccc(C(O)(C(F)(F)F)C(F)(F)F)cc1 [T1317, N-(2,2,2-trifluoroethyl)-N-{4-[2,2,2-trifluoro-1-hydroxy-1-(trifluoromethyl)ethyl]phenyl}benzene sulfonamide]
- SPTLC1 expression [1]: induction
- GPX3 expression [2]: induction
- ABCA12 expression (ABCA12; FIG. 6A): induction
- UV-induced inhibition of ABCA12 expression (ABCA12; UV-exposed (8 J/m^2), FIG. 6B): reversed
- SMPD1 expression [3]: induction
- ABCA2 expression (ABCA2): induction
- TIMP1 expression (TIMP1 [4]; TNFα-exposed (5 ng/ml rhTNFα)): induced
- TIMP1 expression (TIMP1 [4]; TNFα-unexposed): induced
- UV-induced MMP-3 expression (MMP3 [5]): inhibition
- UV-induced expression of IL-8 (IL-8): reduced
- ABCA13 expression (ABCA13): induction
- ASAH1 expression (acid ceramidase (ASAH1)): induction
- UV-induced expression of TNFα (TNFα; UV-exposed (8 J/m^2)): reduced
- basal expression of TNFα (TNFα; UV-unexposed): reduced
- UVB-mediated inhibition of decorin expression (decorin): reversed
- TNFα-induced MMP-3 expression (MMP3 [6]): inhibition
- GSR expression [7]: induction
- TIMP1 expression (TIMP1 [8]; UV-exposed (8 J/m^2)): induced
- TIMP1 expression (TIMP1 [8]; UV-unexposed): induced
- CAT expression (catalase (CAT)): induction
- LASS2 expression [9]: induction
- expression of LXRα (LXRα; UV-exposed (8 J/m^2)): induced
- expression of LXRα (LXRα; UV-unexposed): induced
- ABCG1 expression (ABCG1): induction
- TXNRD1 expression [10]: induction
- ABCA1 expression (ABCA1): induction
- TNFα-induced MMP1 expression (MMP1): inhibition
- UV-mediated inhibition of LXRβ expression (LXRβ): reversed
